Test results: patent publication US10004701B2, “Methods and compositions for treating infection” (UNIVERSITY OF ROCHESTER, priority 2012, dated 2018)
Where a name gives a salt, the structure may show the parent alone. Read-outs that look alike come from different tables or passages of the source.

Tests used:
Experiment in all cases: AK assay 384-well format, Prestwick library screening
[1] = system: E. faecium; format: cell-based, Enterococcus faecium; conditions: 50 μM final drug concentration; for fold induction at 50 µM: Enterococcus faecium, 3 h; for AK-based Prestwick library screening result, E. faecium (fold increase in extracellular AK activity): positive cutoff 3-fold increase
[2] = system: E. coli; format: cell-based, Escherichia coli; conditions: 50 μM final drug concentration; for fold induction at 50 µM: Escherichia coli, 3 h; for AK-based Prestwick library screening result, E. coli (fold increase in extracellular AK activity): positive cutoff 3-fold increase
[3] = system: A. baumannii strain 98-37-09; format: cell-based, Acinetobacter baumannii; conditions: 50 μM final drug concentration; for fold induction at 50 µM: Acinetobacter baumannii, 983709, 3 h; for AK-based Prestwick library screening result, A. baumannii (fold increase in extracellular AK activity): positive cutoff 3-fold increase
[4] = system: E. cloacae; format: cell-based, Enterobacter cloacae; conditions: 50 μM final drug concentration; for fold induction at 50 µM: Enterobacter cloacae, 3 h; for AK-based Prestwick library screening result, E. cloacae (fold increase in extracellular AK activity): positive cutoff 3-fold increase
[5] = system: S. aureus strain USA300-0114; format: cell-based, Staphylococcus aureus; conditions: 50 μM final drug concentration; for fold induction at 50 µM: Staphylococcus aureus, USA300, 3 h; for AK-based Prestwick library screening result, S. aureus (fold increase in extracellular AK activity): positive cutoff 3-fold increase
[6] = system: P. aeruginosa; format: cell-based, Pseudomonas aeruginosa; conditions: 50 μM final drug concentration; for fold induction at 50 µM: Pseudomonas aeruginosa, 3 h; for AK-based Prestwick library screening result, P. aeruginosa (fold increase in extracellular AK activity): positive cutoff 3-fold increase
[7] = system: K. pneumoniae; format: cell-based, Klebsiella pneumoniae; conditions: 50 μM final drug concentration; for fold induction at 50 µM: Klebsiella pneumoniae, 3 h; for AK-based Prestwick library screening result, K. pneumoniae (fold increase in extracellular AK activity): positive cutoff 3-fold increase
[8] = 384-well format, cutoff for positive-scoring molecules 3-fold increase, read-out: AK-based Prestwick Library Screening Results, E. faecium (increase in extracellular AK activity)
[9] = 384-well format, cutoff for positive-scoring molecules 3-fold increase, read-out: AK-based Prestwick Library Screening Results, E. coli (increase in extracellular AK activity)
[10] = 384-well format, cutoff for positive-scoring molecules 3-fold increase, read-out: AK-based Prestwick Library Screening Results, A. baumannii (increase in extracellular AK activity)
[11] = 384-well format, cutoff for positive-scoring molecules 3-fold increase, read-out: AK-based Prestwick Library Screening Results, E. cloacae (increase in extracellular AK activity)
[12] = 384-well format, cutoff for positive-scoring molecules 3-fold increase, read-out: AK-based Prestwick Library Screening Results, S. aureus (increase in extracellular AK activity)
[13] = 384-well format, cutoff for positive-scoring molecules 3-fold increase, read-out: AK-based Prestwick Library Screening Results, P. aeruginosa (increase in extracellular AK activity)
[14] = 384-well format, cutoff for positive-scoring molecules 3-fold increase, read-out: AK-based Prestwick Library Screening Results, K. pneumoniae (increase in extracellular AK activity)
[15] = planktonic, cutoff for positive 3-fold increase, read-out: AK-based Prestwick Library Screening Results, E. faecium (fold increase in extracellular AK activity)
[16] = planktonic, cutoff for positive 3-fold increase, read-out: AK-based Prestwick Library Screening Results, E. coli (fold increase in extracellular AK activity)
[17] = planktonic, cutoff for positive 3-fold increase, read-out: AK-based Prestwick Library Screening Results, A. baumannii (fold increase in extracellular AK activity)
[18] = planktonic, cutoff for positive 3-fold increase, read-out: AK-based Prestwick Library Screening Results, E. cloacae (fold increase in extracellular AK activity)
[19] = planktonic, cutoff for positive 3-fold increase, read-out: AK-based Prestwick Library Screening Results, S. aureus (fold increase in extracellular AK activity)
[20] = planktonic, cutoff for positive 3-fold increase, read-out: AK-based Prestwick Library Screening Results, P. aeruginosa (fold increase in extracellular AK activity)
[21] = planktonic, cutoff for positive 3-fold increase, read-out: AK-based Prestwick Library Screening Results, K. pneumoniae (fold increase in extracellular AK activity)
[22] = cutoff for positive-scoring molecules 3-fold increase, read-out: AK-based Prestwick Library Screening Results, E. faecium (fold increase in extracellular AK activity)
[23] = cutoff for positive-scoring molecules 3-fold increase, read-out: AK-based Prestwick Library Screening Results, E. coli (fold increase in extracellular AK activity)
[24] = cutoff for positive-scoring molecules 3-fold increase, read-out: AK-based Prestwick Library Screening Results, A. baumannii (fold increase in extracellular AK activity)
[25] = cutoff for positive-scoring molecules 3-fold increase, read-out: AK-based Prestwick Library Screening Results, E. cloacae (fold increase in extracellular AK activity)
[26] = cutoff for positive-scoring molecules 3-fold increase, read-out: AK-based Prestwick Library Screening Results, S. aureus (fold increase in extracellular AK activity)
[27] = cutoff for positive-scoring molecules 3-fold increase, read-out: AK-based Prestwick Library Screening Results, P. aeruginosa (fold increase in extracellular AK activity)
[28] = cutoff for positive-scoring molecules 3-fold increase, read-out: AK-based Prestwick Library Screening Results, K. pneumoniae (fold increase in extracellular AK activity)

Compound: CC(=O)Oc1ccccc1C(=O)Oc1ccccc1C(=O)O [Acetylsalicylsalicylic acid]
- fold induction at 50 µM [1, 8]: 1
- fold induction at 50 µM [2, 9]: 0.6
- fold induction at 50 µM [3, 10]: 0.7
- fold induction at 50 µM [4, 11]: 0.8
- fold induction at 50 µM [5, 12]: 0.7
- fold induction at 50 µM [6, 13]: 0.6
- fold induction at 50 µM [7, 14]: 0.6

Compound: O=c1[nH]c2ccccc2n1C1CCN(CCCC(c2ccc(F)cc2)c2ccc(F)cc2)CC1 [Pimozide]
- fold induction at 50 µM ([1]; planktonic E. faecium, 384-well, cutoff for positive-scoring molecules 3-fold increase, read-out: AK-based Prestwick Library Screening Results: E. faecium (increase in extracellular AK activity)): 1.3
- fold induction at 50 µM ([2]; planktonic E. coli, 384-well, cutoff for positive-scoring molecules 3-fold increase, read-out: AK-based Prestwick Library Screening Results: E. coli (increase in extracellular AK activity)): 1.7
- fold induction at 50 µM ([3]; planktonic A. baumannii, 384-well, cutoff for positive-scoring molecules 3-fold increase, read-out: AK-based Prestwick Library Screening Results: A. baumannii (increase in extracellular AK activity)): 8.7
- fold induction at 50 µM ([4]; planktonic E. cloacae, 384-well, cutoff for positive-scoring molecules 3-fold increase, read-out: AK-based Prestwick Library Screening Results: E. cloacae (increase in extracellular AK activity)): 1.2
- fold induction at 50 µM ([5]; planktonic S. aureus, 384-well, cutoff for positive-scoring molecules 3-fold increase, read-out: AK-based Prestwick Library Screening Results: S. aureus (increase in extracellular AK activity)): 2.3
- fold induction at 50 µM ([6]; planktonic P. aeruginosa, 384-well, cutoff for positive-scoring molecules 3-fold increase, read-out: AK-based Prestwick Library Screening Results: P. aeruginosa (increase in extracellular AK activity)): 1.3
- fold induction at 50 µM ([7]; planktonic K. pneumoniae, 384-well, cutoff for positive-scoring molecules 3-fold increase, read-out: AK-based Prestwick Library Screening Results: K. pneumoniae (increase in extracellular AK activity)): 1.3

Compound: COc1ccc(C[C@H](N)C(=O)N[C@H]2[C@@H](O)[C@H](n3cnc4c(N(C)C)ncnc43)O[C@@H]2CO)cc1 [Puromycin dihydrochloride]
- fold induction at 50 µM [1, 15]: 1.1
- fold induction at 50 µM [2, 16]: 1.1
- fold induction at 50 µM [3, 17]: 1.6
- fold induction at 50 µM [4, 18]: 1.4
- fold induction at 50 µM [5, 19]: 1.1
- fold induction at 50 µM [6, 20]: 1
- fold induction at 50 µM [7, 21]: 1.1

Compound: Clc1ccc(C(Cn2ccnc2)OCc2csc3c(Cl)cccc23)c(Cl)c1 (stereo not drawn) [Sertaconazole nitrate]
- fold induction at 50 µM [1, 22]: 2.8
- fold induction at 50 µM [2, 23]: 0.7
- fold induction at 50 µM [3, 24]: 2.4
- fold induction at 50 µM [4, 25]: 0.4
- fold induction at 50 µM [5, 26]: 0.7
- fold induction at 50 µM [6, 27]: 0.5
- fold induction at 50 µM [7, 28]: 0.7

Compound: CC(=O)[C@@]1(O)CC[C@H]2[C@@H]3C[C@H](C)C4=CC(=O)C=C[C@]4(C)[C@@]3(F)[C@@H](O)C[C@@]21C [Fluorometholone]
- fold induction at 50 µM [1, 22]: 1
- fold induction at 50 µM [2, 23]: 1.1
- fold induction at 50 µM [3, 24]: 1.3
- fold induction at 50 µM [4, 25]: 1.7
- fold induction at 50 µM [5, 26]: 1.2
- fold induction at 50 µM [6, 27]: 1.1
- fold induction at 50 µM [7, 28]: 1

Compound: COc1cc2ccc(=O)oc2cc1O [Scopoletin]
- fold induction at 50 µM [1, 22]: 0.9
- fold induction at 50 µM [2, 23]: 0.4
- fold induction at 50 µM [3, 24]: 0.4
- fold induction at 50 µM [4, 25]: 0.3
- fold induction at 50 µM [5, 26]: 0.3
- fold induction at 50 µM [6, 27]: 0.4
- fold induction at 50 µM [7, 28]: 0.4

Compound: CC1(C)S[C@@H]2[C@H](NC(=O)Cc3ccccc3)C(=O)N2[C@H]1C(=O)O.CC1(C)S[C@@H]2[C@H](NC(=O)Cc3ccccc3)C(=O)N2[C@H]1C(=O)O.c1ccc(CNCCNCc2ccccc2)cc1 [Benzathine benzylpenicillin]
- AK-based Prestwick library screening result, E. faecium (fold increase in extracellular AK activity) ([1]; planktonic E. faecium): 1.6
- AK-based Prestwick library screening result, E. coli (fold increase in extracellular AK activity) ([2]; planktonic E. coli): 15.6
- AK-based Prestwick library screening result, A. baumannii (fold increase in extracellular AK activity) ([3]; planktonic A. baumannii): 5.9
- AK-based Prestwick library screening result, E. cloacae (fold increase in extracellular AK activity) ([4]; planktonic E. cloacae): 1.6
- AK-based Prestwick library screening result, S. aureus (fold increase in extracellular AK activity) ([5]; planktonic S. aureus): 1.0
- AK-based Prestwick library screening result, P. aeruginosa (fold increase in extracellular AK activity) ([6]; planktonic P. aeruginosa): 1.1
- AK-based Prestwick library screening result, K. pneumoniae (fold increase in extracellular AK activity) ([7]; planktonic K. pneumoniae): 1.0

Compound: C1CCN2C[C@@H]3C[C@@H](CN4CCCC[C@@H]34)[C@H]2C1 [Sparteine (−)]
- AK-based Prestwick Library Screening Results, E. faecium (fold increase in extracellular AK activity) ([1]; planktonic, […]): 1.0
- AK-based Prestwick Library Screening Results, E. coli (fold increase in extracellular AK activity) ([2]; planktonic, […]): 1.3
- AK-based Prestwick Library Screening Results, A. baumannii (fold increase in extracellular AK activity) ([3]; planktonic, […]): 1.0
- AK-based Prestwick Library Screening Results, E. cloacae (fold increase in extracellular AK activity) ([4]; planktonic, […]): 1.7
- AK-based Prestwick Library Screening Results, S. aureus (fold increase in extracellular AK activity) ([5]; planktonic, […]): 1.1
- AK-based Prestwick Library Screening Results, P. aeruginosa (fold increase in extracellular AK activity) ([6]; planktonic, […]): 1.0
- AK-based Prestwick Library Screening Results, K. pneumoniae (fold increase in extracellular AK activity) ([7]; planktonic, […]): 1.0

Compound: Vitamin K2
- AK-based Prestwick library screening result, E. faecium (fold increase in extracellular AK activity) ([1]; planktonic E. faecium): 1.0
- AK-based Prestwick library screening result, E. coli (fold increase in extracellular AK activity) ([2]; planktonic E. coli): 0.9
- AK-based Prestwick library screening result, A. baumannii (fold increase in extracellular AK activity) ([3]; planktonic A. baumannii): 1.1
- AK-based Prestwick library screening result, E. cloacae (fold increase in extracellular AK activity) ([4]; planktonic E. cloacae): 1.6
- AK-based Prestwick library screening result, S. aureus (fold increase in extracellular AK activity) ([5]; planktonic S. aureus): 1.8
- AK-based Prestwick library screening result, P. aeruginosa (fold increase in extracellular AK activity) ([6]; planktonic P. aeruginosa): 1.1
- AK-based Prestwick library screening result, K. pneumoniae (fold increase in extracellular AK activity) ([7]; planktonic K. pneumoniae): 0.8

Compound: OCCN1CCN(CCCN2c3ccccc3Sc3ccc(Cl)cc32)CC1 [Perphenazine]
- fold induction at 50 µM [1, 8]: 1.2
- fold induction at 50 µM [2, 9]: 1.5
- fold induction at 50 µM [3, 10]: 1.6
- fold induction at 50 µM [4, 11]: 1.4
- fold induction at 50 µM [5, 12]: 0.9
- fold induction at 50 µM [6, 13]: 1.1
- fold induction at 50 µM [7, 14]: 1.3

Compound: N=C(N)N1CCc2ccccc2C1 [Debrisoquin sulfate]
- fold induction at 50 µM [1, 15]: 1
- fold induction at 50 µM [2, 16]: 1.2
- fold induction at 50 µM [3, 17]: 0.9
- fold induction at 50 µM [4, 18]: 1.7
- fold induction at 50 µM [5, 19]: 0.9
- fold induction at 50 µM [6, 20]: 1
- fold induction at 50 µM [7, 21]: 0.8

Compound: O=C(/C=C/C=C/c1ccc2c(c1)OCO2)N1CCCCC1 [Piperine]
- fold induction at 50 µM [1, 15]: 0.3
- fold induction at 50 µM [2, 16]: 0.4
- fold induction at 50 µM [3, 17]: 0.4
- fold induction at 50 µM [4, 18]: 1.6
- fold induction at 50 µM [5, 19]: 0.2
- fold induction at 50 µM [6, 20]: 0.4
- fold induction at 50 µM [7, 21]: 0.3
